# What was measured:
# FRAP assay = conditions: positive control, 1 mM was used; mean ± SEM (n = 3)
# Procedure: The FRAP assay was performed in a 96-well plate as described (Firuzi et al. [2005]). Briefly, 5 µl of each sample was mixed with 150 µl of freshly prepared FRAP reagent (250 mM acetate buffer, pH 3.6; 8.3 mM 2,4,6-tripyridyl-s-triazine dissolved in 40 mM HCl and 16.7 mM FeCl3·6H2O solution). After incubation at 37 °C for 30 min, the absorbance of the solution was measured at 593 nm. Different concentrations of Fe^2+ standard solution were used for the construction of the standard curve, and ascorbic acid was used as the positive control.
# [1] = DPPH free radicals scavenging assay; conditions: concentration of sample which scavenges 50 % of free radicals; 30 min; mean ± SEM (n = 3)
# Procedure: The free radicals scavenging capacities (SC) were measured and compared using the DPPH assay (Chan et al. [2010]). Briefly, 5 µl of individual extract (0.625–10 mg/ml) was mixed with 195 μl of DPPH solution (24 mg/l) in a 96-well plate. The reaction was allowed to proceed in the dark for 30 min before the absorbance of the resultant solution was measured at 515 nm using a Micro-plate Absorbance Reader (Bio-Rad, CA, USA). Ascorbic acid (Sigma-Aldrich Chemicals Co., MO, USA) in distilled water served as the positive control. SC50 was estimated as the concentration of sample which scavenges 50 % of free radicals.
structure (smiles),measurement,setting,value
O=C1O[C@H]([C@@H](O)CO)C(O)=C1O [Ascorbic acid],FRAP assay,FRAP assay,2278 ± 15 μmol Fe^2+/mg extract
same,DPPH assay (SC50),[1],0.107 ± 0.004 mg/mL
